Measurements published in patent US11266643B2, “Triaryl compounds for treatment of PD-L1 diseases” (CHEMOCENTRYX, INC., priority 2019, dated 2022).

What follows are compounds tested against human PD-L1 (Homo sapiens (Human), UniProt Q9NZQ7) (assay: Enzyme-Linked Immunosorbent Assay (ELISA), PD-1/PD-L1 binding). Settings: plate-coated human PD-L1, biotinylated Human PD-1, absorbance at 450 nm.
Procedure, shortened: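 Competitive ELISA: human PD-1 […] (0.31 μg/mL) and serially diluted compounds (1:5) incubated 1 h at 37° C on wells coated with […] human PD-L1. Signal via streptavidin-HRP/TMB, stopped with 2 N H2SO4, measured as A450.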

Sequence of human PD-L1 (Q9NZQ7 19-239): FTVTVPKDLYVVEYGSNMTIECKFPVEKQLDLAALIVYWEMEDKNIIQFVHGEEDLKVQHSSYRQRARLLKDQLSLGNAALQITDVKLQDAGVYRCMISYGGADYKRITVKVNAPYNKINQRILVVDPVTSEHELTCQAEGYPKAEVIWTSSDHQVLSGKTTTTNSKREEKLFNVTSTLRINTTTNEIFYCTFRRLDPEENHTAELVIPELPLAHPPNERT

IC50, < 10 nM:
COc1cc(-c2cccc(-c3cccc(Nc4nccc5nccnc45)c3Cl)c2Cl)cc(F)c1CN1CC(C)(C(=O)O)C1 [Example 2.109], COc1cc(-c2cccc(-c3cccc(Nc4nccc5nccnc45)c3Cl)c2Cl)cc(F)c1CN[C@@H]1COC[C@@H]1O [Example 2.110], COc1cc(-c2cccc(-c3cccc(Nc4nccc5nccnc45)c3C)c2Cl)cc(F)c1CNCC1(O)CC1 [Example 2.111], COc1cc(-c2cccc(-c3cccc(Nc4nccc5nccnc45)c3C)c2Cl)cc(F)c1CNCC(C)(C)O [Example 2.112], COc1cc(-c2cccc(-c3cccc(Nc4nccc5nccnc45)c3C)c2Cl)cc(F)c1CNCC(C)(C)C(N)=O [Example 2.113], COc1cc(-c2cccc(-c3cccc(Nc4nccc5nccnc45)c3C)c2Cl)cc(F)c1CN[C@H]1CCOC[C@H]1O [Example 2.114], COc1cc(-c2cccc(-c3cccc(Nc4nccc5nccnc45)c3C)c2Cl)cc(F)c1CN[C@@H]1COC[C@@H]1O [Example 2.115], COc1cc(-c2cccc(-c3cccc(Nc4nccc5nccnc45)c3C)c2Cl)cc(F)c1CN[C@H]1CCC(=O)NC1 [Example 2.116]
